Where “and” joins values, the source holds several entries; their conditions need not be identical. Equal entries are not always repeated.
Assays:
[1] = biological target: T1, recombinant full-length human GLS2 (Homo sapiens, UniProt Q9UI32); assay: Real-time recombinant glutaminase activity assay, GLS2; assay type: biochemical
T1 construct: GLS2 (residues 38 to 602) in E. coli; inferred from pQE80 vector and Ni-NTA/imidazole purification; made in house; host or cells: E. coli BL21(DE3)
T1 sequence (Q9UI32 38-602): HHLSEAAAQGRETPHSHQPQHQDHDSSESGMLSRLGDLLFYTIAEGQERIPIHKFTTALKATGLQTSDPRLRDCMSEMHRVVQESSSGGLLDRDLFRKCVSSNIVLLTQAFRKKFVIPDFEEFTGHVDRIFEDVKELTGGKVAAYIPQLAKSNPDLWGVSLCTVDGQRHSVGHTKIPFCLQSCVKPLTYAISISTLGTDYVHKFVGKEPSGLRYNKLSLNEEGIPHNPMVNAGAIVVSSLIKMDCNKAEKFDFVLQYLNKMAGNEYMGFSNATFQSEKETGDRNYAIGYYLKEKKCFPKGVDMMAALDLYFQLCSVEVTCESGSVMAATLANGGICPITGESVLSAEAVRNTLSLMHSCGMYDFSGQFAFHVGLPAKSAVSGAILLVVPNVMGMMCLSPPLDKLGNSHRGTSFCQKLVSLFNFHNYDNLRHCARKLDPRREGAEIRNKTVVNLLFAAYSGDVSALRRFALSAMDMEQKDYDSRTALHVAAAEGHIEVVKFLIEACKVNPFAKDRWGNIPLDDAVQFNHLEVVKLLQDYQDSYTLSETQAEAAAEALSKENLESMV
Procedure: Real-time monitoring of glutaminase activity through NADH production was performed on a Cary Eclipse fluorescence spectrometer. The excitation and emission wavelengths were set at 340 nm and 460 nm, respectively. To a 1 ml cuvette, 900 μl of assay buffer was added, followed by 10 μl of GDH, 40 μl of 50 mM NAD and 20 μl of either DMSO or various dilutions of 968. Then, 100 μl of either 100 nM GAC or 500 nM GLS2 was added to this mixture and the fluorescence emission was monitored in real time. After 30 s, 200 μl of a mixture of glutamine and K2HPO4 was added such that the final concentrations of K2HPO4 and glutamine were 100 mM and 20 mM, respectively. The initial velocity of glutamine hydrolysis was obtained from the slopes of the linear portion of the kinetic curve.
Recombinant GAC and GLS2 were expressed in E. coli as described in Huang et al., “Characterization of the Interactions of Potent Allosteric Inhibitors with Glutaminase C, a Key Enzyme in Cancer Cell Glutamine Metabolism,” J. Biol. Chem. 293:3535-3545 (2018), which is hereby incorporated by reference in its entirety. Briefly, E. coli strain BL21(DE3) (Thermo Fisher Scientific) were transformed with vector pQE80-GAC-72-598 or with pQE80-GLS2-38-602 to express the processed forms of GAC and GLS2, respectively. For both constructs, expression was induced with 0.3 mM IPTG for 20 hours at 18° C., and cells were then harvested by centrifugation and lysed by sonication in binding buffer (500 mM NaCl, 50 mM Tris-HCl pH 8.5, 10 mM imidazole, 5 mM β-mercaptoethanol, 1 mM benzamidine chloride). The lysate was centrifuged, and the supernatant applied to a Ni-NTA column which was then washed with 100 column volumes of binding buffer followed by 10 volumes of wash buffer (500 mM NaCl, 50 mM Tris-HCl pH 8.5, 40 mM imidazole, 5 mM β-mercaptoethanol, 1 mM benzamidine chloride). Protein was eluted with 5 column volumes of elution buffer (500 mM NaCl, 300 mM imidazole-HCl pH 7.5, 5 mM β-mercaptoethanol, 1 mM benzamidine chloride). The eluate was centrifugally concentrated and then further purified by FPLC using a HiLoad 16/600 Superdex 200 column (GE Healthcare) with 150 mM NaCl, 5 mM Tris-HCl pH 7.5.

T-47D cells = assay: 6-day cell proliferation assay, T-47D; assay type: cell-based, human; details: proliferation over 6 days
Procedure: (§1) Human breast cancer cell lines MCF7, BT-474, T-47D, MDA-MB-453, MDA-MB-231, Hs 578T, HCC38, SK-BR-3, and DU4475 were purchased from the American Type Culture Collection (ATCC) and no additional cell authentication was performed. The TSE human breast cancer cell line was supplied by Dr. Steven Abcouwer (University of Michigan). All breast cancer cells were cultured at 37° C. under a 5% CO2 atmosphere in RPMI 1640 medium containing 2 mM glutamine (Gibco) and supplemented with 10% fetal bovine serum (FBS) (Gibco). The 293T cell line (ATCC) used for generating lentivirus particles was cultured as above but using DMEM, high glucose (Gibco).
(§2) Culture medium was added to 12-well plates (1 ml/well) and wells were seeded with cells at Day 0 as follows. MCF7, T-47D, BT-474, HCC38 cells: […] cells/well. MDA-MB-453 and MDA-MB-231 cells: 1×10^4 cells/well. TSE and Hs 578T cells: 0.3×10^4 cells/well. After 16 hours, culture medium was replaced with fresh medium supplemented with appropriate concentrations of inhibitors and was subsequently replaced every 48 hours. On Day 6 cells were trypsinized and suspended in an appropriate volume of culture medium, and the total number of cells per well was determined using a hemocytometer or a TC20 Automated Cell Counter (Bio-Rad).

breast cancer cell lines = assay: 6-day cell proliferation assay, collection of breast cancer cell lines; assay type: cell-based, human
Procedure: as §1, §2

[2] = biological target: T2, recombinant full-length human GLS (GAC splice variant) (Homo sapiens, UniProt O94925); assay: Real-time recombinant glutaminase activity assay, GLS; assay type: biochemical; details: different concentrations
T2 construct: processed forms of human GAC (residues 72 to 598); inferred from pQE80 vector and Ni-NTA/imidazole purification; made in house; host or cells: E. coli BL21(DE3)
T2 sequence (O94925 72-598 isoform O94925-3): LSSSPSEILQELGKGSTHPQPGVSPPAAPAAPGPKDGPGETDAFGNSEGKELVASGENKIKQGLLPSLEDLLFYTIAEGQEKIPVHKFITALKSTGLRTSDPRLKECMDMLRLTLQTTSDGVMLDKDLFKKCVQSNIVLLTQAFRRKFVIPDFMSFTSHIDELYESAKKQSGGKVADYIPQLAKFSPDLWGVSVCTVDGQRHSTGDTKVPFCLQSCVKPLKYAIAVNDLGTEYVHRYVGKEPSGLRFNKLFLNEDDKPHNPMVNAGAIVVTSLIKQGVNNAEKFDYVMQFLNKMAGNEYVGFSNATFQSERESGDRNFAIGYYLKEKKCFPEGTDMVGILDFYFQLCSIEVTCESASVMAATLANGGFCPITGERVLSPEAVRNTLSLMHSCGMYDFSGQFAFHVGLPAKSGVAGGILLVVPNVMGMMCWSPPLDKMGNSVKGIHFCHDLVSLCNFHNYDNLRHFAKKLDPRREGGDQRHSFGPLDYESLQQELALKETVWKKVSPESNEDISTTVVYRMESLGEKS
Procedure: Real-time monitoring of glutaminase activity through NADH production was performed on a Cary Eclipse fluorescence spectrometer. The excitation and emission wavelengths were set at 340 nm and 460 nm, respectively. […] Then, 100 μl of either 100 nM GAC or 500 nM GLS2 was added to this mixture and the fluorescence emission was monitored in real time. After 30 s, 200 μl of a mixture of glutamine and K2HPO4 was added such that the final concentrations of K2HPO4 and glutamine were 100 mM and 20 mM, respectively. The initial velocity of glutamine hydrolysis was obtained from the slopes of the linear portion of the kinetic curve.

[3] = biological target: T2, recombinant full-length human GLS (GAC splice variant); details: previously reported (Wang et al. 2010); cited from earlier work

| Compound | inhibition of recombinant GLS2 activity ([1]; different concentrations) | EC50 (T-47D cells) [µM] | EC50 (breast cancer cell lines; breast cancer cells, 6 days) [µM] | maximal inhibition (breast cancer cell lines; cells with highest expression of GLS) | inhibition of recombinant GLS2 activity ([1]; at 50 μM, NADH fluorescence in real time) | selectivity for GLS2 over GLS ([1]; purified recombinant glutaminases) | inhibition of recombinant GLS activity [2] | binding and inhibition of GLS splice variant GAC [3] |
| --- | --- | --- | --- | --- | --- | --- | --- | --- |
| O=C(Cc1ccccc1)Nc1nnc(CCSCCc2nnc(NC(=O)Cc3ccccc3)s2)s1 [BPTES] | resistance | ~20 | – | – | – | – | – | – |
| CN(C)c1ccc(C2Nc3ccc4ccccc4c3C3=C2C(=O)CC(C)(C)C3)cc1Br (stereo not shown) [Compound 968] | inhibited | 4 | 3 to 5 | 70-75% | completely blocks activity | > 3 fold and ~3 fold | inhibited | binds and inhibits |

Source: patent US20250275964A1, “METHODS OF INHIBITING LIVER-TYPE GLUTAMINASE, GLS2” (CORNELL UNIVERSITY, priority 2019, published 2025)
